Source: patent publication US6100074A, “Mutant mono-oxygenase cytochrome P-450 cam” (BG plc, priority 1994, dated 2000)
Read-outs that look alike come from different tables or passages of the source.

What was measured:
wild type P450cam [1] = molecular target: T1, wild type P450cam (Pseudomonas putida, UniProt P00183); experiment: biochemical; type: binding; conditions: read-out: Vs DTT (percentage displacement of DTT bound to P-450)
Target sequence in this assay (P00183 whole entry): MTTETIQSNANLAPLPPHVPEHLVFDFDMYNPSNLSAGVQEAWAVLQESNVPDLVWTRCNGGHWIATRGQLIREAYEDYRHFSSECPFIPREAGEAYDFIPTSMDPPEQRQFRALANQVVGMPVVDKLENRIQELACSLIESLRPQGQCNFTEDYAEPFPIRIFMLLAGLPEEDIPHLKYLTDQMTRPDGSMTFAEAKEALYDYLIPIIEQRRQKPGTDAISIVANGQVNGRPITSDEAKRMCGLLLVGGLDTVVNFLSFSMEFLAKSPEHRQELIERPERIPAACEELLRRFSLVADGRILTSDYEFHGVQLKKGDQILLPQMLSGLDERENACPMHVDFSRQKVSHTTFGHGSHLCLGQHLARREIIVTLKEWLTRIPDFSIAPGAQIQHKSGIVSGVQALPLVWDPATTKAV

P-450cam mutant Y96A = P-450cam mutant Y96A (Pseudomonas putida, UniProt P00183, Y97A); experiment: biochemical; type: binding
wild type P450cam [2] = molecular target: T1, wild type P450cam; type: binding; conditions: Wild type; 200 μM test compound, phosphate buffer pH 7.4
Target sequence in this assay (P00183 whole entry): as above

[3] = molecular target: T2, P450cam mutant Y96A, C334A (Pseudomonas putida, UniProt P00183, C335A/Y97A); type: biochemical, P. putida
T2 construct: reconstituted with putidaredoxin and putidaredoxin reductase
Description: (§1) […] The enzymatic reaction was initiated by firstly adding NADH to a total concentration of 2 mM. Further four aliquots of NADH (to increase the NADH concentration by 1 mM each time) were added in intervals of 5 min and the reaction quenched after 30 min by adding 0.5 ml chloroform. The chloroform layer was analysed by gas chromatography.
(§2) Reaction products for some substrate compounds have been purified by high performance liquid chromatography and identified by mass spectroscopy, nuclear magnetic resonance, and/or co-elution. […] Table 4(a) to 4(h) details the product distributions for mutant and substrate combinations where this has been elucidated to date.
(§3) Product structure and distributions following oxidation of substrates
(§4) active site mutants. All mutants shown below also contain the C334A

[4] = molecular target: T3, P450cam mutant Y96F, C334A (Pseudomonas putida, UniProt P00183, C335A/Y97F); type: biochemical, P. putida
T3 construct: reconstituted with putidaredoxin and putidaredoxin reductase
Description: as §1, §2, §3, §4

[5] = molecular target: T4, P450cam mutant Y96L, C334A (Pseudomonas putida, UniProt P00183, C335A/Y97L); experiment: Product distribution following oxidation of substrates, Y96L (also C334A); type: biochemical, P. putida
T4 construct: reconstituted with putidaredoxin and putidaredoxin reductase
Description: as §1, §2, §3, §4

[6] = molecular target: T5, P450cam mutant Y96V, C334A (Pseudomonas putida, UniProt P00183, C335A/Y97V); experiment: Product distribution following oxidation of substrates, Y96V (also C334A); type: biochemical, P. putida
T5 construct: reconstituted with putidaredoxin and putidaredoxin reductase
Description: as §1, §2, §3, §4

wild type P450cam [7] = molecular target: T1, wild type P450cam; experiment: Product distribution following oxidation of substrates, WT; type: biochemical, P. putida; set-up: reconstituted with putidaredoxin and putidaredoxin reductase
Description: as §1, §2, §3
Target sequence in this assay (P00259 whole entry): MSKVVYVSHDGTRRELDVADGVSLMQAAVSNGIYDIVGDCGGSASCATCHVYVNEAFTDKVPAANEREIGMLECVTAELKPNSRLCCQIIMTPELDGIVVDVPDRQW
Target sequence in this assay (P00183 whole entry): as the sequence (P00183 whole entry) above
Target sequence in this assay (P16640 whole entry, further chain): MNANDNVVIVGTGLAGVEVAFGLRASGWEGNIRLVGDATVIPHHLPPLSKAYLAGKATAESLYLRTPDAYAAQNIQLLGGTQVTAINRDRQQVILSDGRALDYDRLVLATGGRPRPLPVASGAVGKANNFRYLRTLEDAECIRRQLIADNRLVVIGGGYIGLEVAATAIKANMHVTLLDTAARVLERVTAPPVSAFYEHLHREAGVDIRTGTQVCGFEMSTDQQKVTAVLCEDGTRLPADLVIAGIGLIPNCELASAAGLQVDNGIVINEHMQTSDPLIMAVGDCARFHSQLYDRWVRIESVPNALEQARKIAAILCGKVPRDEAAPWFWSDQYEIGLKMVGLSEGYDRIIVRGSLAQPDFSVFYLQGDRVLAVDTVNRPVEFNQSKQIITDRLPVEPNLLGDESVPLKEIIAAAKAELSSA

[8] = molecular target: T6, P450cam mutant F87A-F96G-F193A (C334A) (Pseudomonas putida, UniProt P00183, C335A/F194A/F88A/Y97G); type: biochemical, P. putida
T6 construct: reconstituted with putidaredoxin and putidaredoxin reductase
Description: as §1, §2, §3, §4

[9] = Wild type, 200 μM DTT, 200 μM test compound, phosphate buffer
[10] = Mutant Y96A, 200 μM DTT, 200 μM test compound, phosphate buffer, read-out: Vs DTT (percentage displacement of DTT bound to P-450)

Chain of P-450cam mutant Y96A (P00183 2-415 Y97A): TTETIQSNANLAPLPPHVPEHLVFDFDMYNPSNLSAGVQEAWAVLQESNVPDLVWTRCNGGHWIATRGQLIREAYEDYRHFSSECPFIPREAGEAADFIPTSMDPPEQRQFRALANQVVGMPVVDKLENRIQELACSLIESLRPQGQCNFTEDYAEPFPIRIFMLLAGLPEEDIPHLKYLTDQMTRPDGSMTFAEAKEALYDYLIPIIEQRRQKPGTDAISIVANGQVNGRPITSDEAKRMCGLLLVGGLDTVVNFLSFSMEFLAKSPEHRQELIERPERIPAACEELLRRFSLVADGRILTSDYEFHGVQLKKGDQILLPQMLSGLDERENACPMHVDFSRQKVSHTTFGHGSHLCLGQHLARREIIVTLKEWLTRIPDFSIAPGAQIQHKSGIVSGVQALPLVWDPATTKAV
T2 sequence (P00259 whole entry): as the sequence (P00259 whole entry) above
T2 sequence (P00183 2-415 Y97A/C335A): as the sequence (P00183 2-415 Y97A) above, with C334A counted along it
T2 sequence (P16640 whole entry, further chain): as the sequence (P16640 whole entry, further chain) above
T6 sequence (P00259 whole entry): as the sequence (P00259 whole entry) above
T6 sequence (P16640 whole entry, further chain): as the sequence (P16640 whole entry, further chain) above
T6 sequence (P00183 2-415 F88A/Y97G/F194A/C335A): as the sequence (P00183 2-415 Y97A) above, with F87A, A96G, F193A, C334A counted along it
T4 sequence (P00259 whole entry): as the sequence (P00259 whole entry) above
T4 sequence (P16640 whole entry, further chain): as the sequence (P16640 whole entry, further chain) above
T4 sequence (P00183 2-415 Y97L/C335A): as the sequence (P00183 2-415 Y97A) above, with A96L, C334A counted along it
T3 sequence (P16640 whole entry): as the sequence (P16640 whole entry, further chain) above
T3 sequence (P00183 2-415 Y97F/C335A): as the sequence (P00183 2-415 Y97A) above, with A96F, C334A counted along it
T3 sequence (P00259 whole entry, further chain): as the sequence (P00259 whole entry) above
T5 sequence (P16640 whole entry): as the sequence (P16640 whole entry, further chain) above
T5 sequence (P00259 whole entry, further chain): as the sequence (P00259 whole entry) above
T5 sequence (P00183 2-415 Y97V/C335A): as the sequence (P00183 2-415 Y97A) above, with A96V, C334A counted along it

Structure (SMILES): C1=CCCCC1 [Cyclohexene]
- inhibition at 200 µM (wild type P450cam [1]; [9]): 5%
- percent displacement of bound DTT at 200 µM (P-450cam mutant Y96A; [10]): 40%

Structure (SMILES): c1ccc(C2CCCCC2)cc1 [Cyclohexylbenzene]
- ΔSpin high/low (percentage of P-450 converted from low- to high-spin) (wild type P450cam [2]): 20%
- inhibition at 200 µM (wild type P450cam [1]; [9]): 20%
- Total products [3]: 7.4 area/10^5
- Products (%): 3-ol ([3]; cyclohexylbenzene): 20%
- Products (%): Cis-4-ol ([3]; cyclohexylbenzene): 45%
- Products (%): Trans-4-ol ([3]; cyclohexylbenzene): 15%
- Total products [4]: 1.1 area/10^5
- Products (%): Cis-4-ol ([4]; cyclohexylbenzene): 13%
- Products (%): Trans-4-ol ([4]; cyclohexylbenzene): 6%
- Total products [5]: 10.4 area/10^5
- Products (%): Cis-4-ol ([5]; cyclohexylbenzene): 16%
- Products (%): Trans-4-ol ([5]; cyclohexylbenzene): 23%
- Total products [6]: 12.5 area/10^5
- Products (%): Cis-4-ol ([6]; cyclohexylbenzene): 23%
- Products (%): Trans-4-ol ([6]; cyclohexylbenzene): 10%
- Total products (wild type P450cam [7]): 0.8 area/10^5
- Products (%): Cis-4-ol (wild type P450cam [7]; cyclohexylbenzene): 12%
- Products (%): Trans-4-ol (wild type P450cam [7]; cyclohexylbenzene): 25%

Structure (SMILES): O=C(c1ccccc1)C1CCCCC1 [Cyclohexylphenylketone]
- inhibition at 200 µM (wild type P450cam [1]; [9]): 30%

Structure (SMILES): C1=CC2C3C=CC(C3)C2C1 (stereo not drawn) [Dicyclopentadiene]
- ΔSpin high/low (percentage of P-450 converted from low- to high-spin) (wild type P450cam [2]): 50%
- inhibition at 200 µM (wild type P450cam [1]; [9]): 80%
- percent displacement of bound DTT at 200 µM (P-450cam mutant Y96A; [10]): 90%

Structure (SMILES): c1ccc(Oc2ccccc2)cc1 [Diphenylether]
- ΔSpin high/low (percentage of P-450 converted from low- to high-spin) (wild type P450cam [2]): 10%
- inhibition at 200 µM (wild type P450cam [1]; [9]): 5%
- percent displacement of bound DTT at 200 µM (P-450cam mutant Y96A; [10]): 50%

Structure (SMILES): CCc1ccccc1 [Ethylbenzene]
- percent displacement of bound DTT at 200 µM (P-450cam mutant Y96A; [10]): 40%

Structure (SMILES): c1ccc2c(c1)-c1cccc3cccc-2c13 [Fluoranthene]
- inhibition at 200 µM (wild type P450cam [1]): 5%
- inhibition at 200 µM (P-450cam mutant Y96A; read-out: Vs DTT (percentage displacement of DTT bound to P-450)): 10%
- Total products [8]: 0.2 area/10^6
- Products (%): A ([8]; fluoranthene): 0%
- Products (%): B ([8]; fluoranthene): 100%
- Total products [3]: 2.7 area/10^6
- Products (%): A ([3]; fluoranthene): 84%
- Products (%): B ([3]; fluoranthene): 16%
- Total products (wild type P450cam [7]): 0 area/10^6
- Products (%): A (wild type P450cam [7]; fluoranthene): 0%
- Products (%): B (wild type P450cam [7]; fluoranthene): 0%

Structure (SMILES): c1ccc2c(c1)Cc1ccccc1-2 [Fluorene]
- percent displacement of bound DTT at 200 µM (P-450cam mutant Y96A; [10]): 50%

Structure (SMILES): C=CC(=C)C [Isoprene]
- percent displacement of bound DTT at 200 µM (P-450cam mutant Y96A; [10]): 10%

Structure (SMILES): CC1CCCCC1 [Methylcyclohexane]
- ΔSpin high/low (percentage of P-450 converted from low- to high-spin) (wild type P450cam [2]): 50%
- inhibition at 200 µM (wild type P450cam [1]; [9]): 50%
- Vs DTT (percentage displacement of DTT bound to P-450) (P-450cam mutant Y96A; Mutant Y96A, 200 μM DTT, 200 μM test compound, phosphate buffer, 200 µM): 70%
- percent displacement of bound DTT at 200 µM (P-450cam mutant Y96A; [10]): 60%

Structure (SMILES): c1ccc(CNc2ccccc2)cc1 [N-Phenylbenzylamine]
- inhibition at 200 µM (wild type P450cam [1]; [9]): 5%

Structure (SMILES): O=C(c1ccccc1)c1ccc2ccccc2c1 [Naphthylphenylketone]
- inhibition at 200 µM (wild type P450cam [1]; [9]): 5%
- percent displacement of bound DTT at 200 µM (P-450cam mutant Y96A; [10]): 5%

Structure (SMILES): CCCCCCCC/C=C\CCCCCCCC(=O)O [Oleic acid]
- inhibition at 200 µM (wild type P450cam [1]; [9]): ~10%
- percent displacement of bound DTT at 200 µM (P-450cam mutant Y96A; [10]): ~20%

Structure (SMILES): O=C(Oc1ccccc1)c1ccccc1 [Phenylbenzoate]
- inhibition at 200 µM (wild type P450cam [1]; [9]): 5%

Structure (SMILES): c1cc2ccc3cccc4ccc(c1)c2c34 [Pyrene]
- Total products [8]: 0.02 area/10^6
- Total products [3]: 1.2 area/10^6
- Total products [4]: 1.5 area/10^6
- Total products [5]: 1.5 area/10^6
- Total products [6]: 1.6 area/10^6
- Total products (wild type P450cam [7]): 0 area/10^6

Structure (SMILES): CCCCCCCCCCCCOS(=O)(=O)O [SDS]
- inhibition at 200 µM (wild type P450cam [1]; [9]): 20%
- percent displacement of bound DTT at 200 µM (P-450cam mutant Y96A; [10]): 60%

Structure (SMILES): CC(C)=CCC/C(C)=C/CC/C(C)=C/CC/C=C(\C)CC/C=C(\C)CCC=C(C)C [Squalene]
- percent displacement of bound DTT at 200 µM (P-450cam mutant Y96A; [10]): 20%

Structure (SMILES): C=Cc1ccccc1 [Styrene]
- percent displacement of bound DTT at 200 µM (P-450cam mutant Y96A; [10]): 30%

Structure (SMILES): Cc1ccccc1 [Toluene]
- percent displacement of bound DTT at 200 µM (P-450cam mutant Y96A; [10]): 30%

Structure (SMILES): C(=C/c1ccccc1)/c1ccccc1 [cis-Stilbene]
- inhibition at 200 µM (wild type P450cam [1]; [9]): 20%
- percent displacement of bound DTT at 200 µM (P-450cam mutant Y96A; [10]): 50%

Structure (SMILES): CCCCCCCCCCCC [n-Dodecane]
- percent displacement of bound DTT at 200 µM (P-450cam mutant Y96A; [10]): 5%

Structure (SMILES): CCCCCCCCCCC [n-Undecane]
- percent displacement of bound DTT at 200 µM (P-450cam mutant Y96A; [10]): 20%

Structure (SMILES): C1CC[C@H]2CCCC[C@@H]2C1 [trans-Decahydro naphthalene]
- ΔSpin high/low (percentage of P-450 converted from low- to high-spin) (wild type P450cam [2]): 20%
- inhibition at 200 µM (wild type P450cam [1]; [9]): 10%
- percent displacement of bound DTT at 200 µM (P-450cam mutant Y96A; [10]): 70%
